# In ChEMBL document CHEMBL1201862, “PubChem BioAssay data set” (2004):
#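 96-well plates; 48 h exposure; 5 concentrations. Endpoints by linear interpolation between flanking doses. Not reached: highest tested concentration assigned. Here, GI50 denotes the concentration required for 50% inhibition of growth.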 Active and inactive are the calls of the source. Cut-off read from the data, not from the text of the source: active = GI50 up to about 1.1 µM and inactive = higher.
# How the values were obtained:
# Experiment in all cases: NCI anticancer screen, dose series, 48 h
# 786-0 = test system: 786-0
# A498 = test system: A498
# A549 = test system: A549
# ACHN = test system: ACHN
# BT-549 = test system: BT-549
# CAKI-1 = test system: CAKI-1
# CCRF-CEM = test system: CCRF-CEM
# COLO 205 = test system: COLO 205
# DU-145 = test system: DU-145
# EKVX = test system: EKVX
# HCC 2998 = test system: HCC 2998
# HCT-116 = test system: HCT-116
# HCT-15 = test system: HCT-15
# HL-60 = test system: HL-60
# HOP-62 = test system: HOP-62
# HOP-92 = test system: HOP-92
# HT-29 = test system: HT-29
# Hs-578T = test system: Hs-578T
# IGROV-1 = test system: IGROV-1
# K562 = test system: K562
# KM12 = test system: KM12
# LOX IMVI = test system: LOX IMVI
# M14 = test system: M14
# MCF7 = test system: MCF7
# MDA-MB-435 = test system: MDA-MB-435
# MDA-N = test system: MDA-N
# MOLT-4 = test system: MOLT-4
# Malme-3M = test system: Malme-3M
# NCI-H226 = test system: NCI-H226
# NCI-H23 = test system: NCI-H23
# NCI-H460 = test system: NCI-H460
# NCI-H522 = test system: NCI-H522
# NCI/ADR-RES = test system: NCI/ADR-RES
# OVCAR-3 = test system: OVCAR-3
# OVCAR-4 = test system: OVCAR-4
# OVCAR-5 = test system: OVCAR-5
# OVCAR-8 = test system: OVCAR-8
# PC-3 = test system: PC-3
# RPMI-8226 = test system: RPMI-8226
# RXF 393 = test system: RXF 393
# SF-268 = test system: SF-268
# SF-295 = test system: SF-295
# SF-539 = test system: SF-539
# SK-MEL-28 = test system: SK-MEL-28
# SK-MEL-2 = test system: SK-MEL-2
# SK-MEL-5 = test system: SK-MEL-5
# SK-OV-3 = test system: SK-OV-3
# SN12C = test system: SN12C
# SNB-19 = test system: SNB-19
# SNB-75 = test system: SNB-75
# SR = test system: SR
# SW-620 = test system: SW-620
# T47D = test system: T47D
# TK-10 = test system: TK-10
# U-251 = test system: U-251
# UACC-257 = test system: UACC-257
# UACC-62 = test system: UACC-62
# UO-31 = test system: UO-31
structure (smiles),measurement,setting,value
CC(C)(C)N1CSC(=S)N(Cc2ccco2)C1,GI50,786-0,1.63 µM (inactive)
same,GI50,A498,13.3 µM (inactive)
same,GI50,A549,5.4 µM (inactive)
same,GI50,ACHN,3.27 µM (inactive)
same,GI50,BT-549,2.79 µM (inactive)
same,GI50,CAKI-1,2.83 µM (inactive)
same,GI50,CCRF-CEM,1.08 µM (active)
same,GI50,COLO 205,3.65 µM (inactive)
same,GI50,DU-145,3.85 µM (inactive)
same,GI50,EKVX,14.4 µM (inactive)
same,GI50,HCC 2998,4.02 µM (inactive)
same,GI50,HCT-116,3.81 µM (inactive)
same,GI50,HCT-15,2.56 µM
same,GI50,HL-60,1.53 µM (inactive)
same,GI50,HOP-62,4.8 µM (inactive)
same,GI50,HOP-92,1.55 µM (inactive)
same,GI50,HT-29,3.27 µM (inactive)
same,GI50,Hs-578T,4.78 µM (inactive)
same,GI50,IGROV-1,2.55 µM (inactive)
same,GI50,K562,1.85 µM (inactive)
same,GI50,KM12,2.7 µM (inactive)
same,GI50,LOX IMVI,3.05 µM (inactive)
same,GI50,M14,2.46 µM (inactive)
same,GI50,MCF7,0.52 µM (active)
same,GI50,MDA-MB-435,1.76 µM (inactive)
same,GI50,MDA-N,2.85 µM (inactive)
same,GI50,MOLT-4,1.45 µM (inactive)
same,GI50,Malme-3M,4.16 µM (inactive)
same,GI50,NCI-H226,20.3 µM (inactive)
same,GI50,NCI-H23,2.37 µM (inactive)
same,GI50,NCI-H460,5.89 µM (inactive)
same,GI50,NCI-H522,3.27 µM (inactive)
same,GI50,NCI/ADR-RES,4.11 µM (inactive)
same,GI50,OVCAR-3,1.94 µM (inactive)
same,GI50,OVCAR-4,12.1 µM (inactive)
same,GI50,OVCAR-5,3.1 µM (inactive)
same,GI50,OVCAR-8,2.12 µM (inactive)
same,GI50,PC-3,3.35 µM (inactive)
same,GI50,RPMI-8226,0.177 µM (active)
same,GI50,RXF 393,5.87 µM (inactive)
same,GI50,SF-268,3.93 µM (inactive)
same,GI50,SF-295,15.8 µM (inactive)
same,GI50,SF-539,0.708 µM (active)
same,GI50,SK-MEL-28,2.4 µM (inactive)
same,GI50,SK-MEL-2,3.55 µM (inactive)
same,GI50,SK-MEL-5,3.61 µM (inactive)
same,GI50,SK-OV-3,5.75 µM (inactive)
same,GI50,SN12C,4.35 µM (inactive)
same,GI50,SNB-19,3.91 µM (inactive)
same,GI50,SNB-75,12.8 µM (inactive)
same,GI50,SR,0.555 µM (active)
same,GI50,SW-620,1.21 µM (inactive)
same,GI50,T47D,5.64 µM (inactive)
same,GI50,TK-10,3.04 µM (inactive)
same,GI50,U-251,3.72 µM (inactive)
same,GI50,UACC-257,10.3 µM (inactive)
same,GI50,UACC-62,7.05 µM (inactive)
same,GI50,UO-31,2.38 µM (inactive)
